pIC50: −log10 of the molar value. The source made the active and inactive calls. No cut-off for these calls is given here.
System: not listed separately
Assay: Antiproliferative activity against human PBMC cells assessed as reduction in cell viability measured after 48 hrs by MTT assay
Assay type: toxicity, cell-based
Conditions: not given

SMILES | IC50 at 48 h
C=C(C)[C@H]1CC[C@@](C)(O)[C@@H](C2=C(O)C(CC=C(C)C)(CC=C(C)C)C(=O)C(C(=O)c3ccccc3)=C2O)C1 | 24 µM
C=C(C)[C@@H]1CC[C@@](C)(O)[C@H]1CC1=C(O)C(C)(CC=C(C)C)C(=O)C(C(=O)C(C)CC)=C1O (stereo not given in full) | > 100 µM

System: HCT-116
Assay: Antiproliferative activity against human HCT-116 cells assessed as reduction in cell viability at 5 uM measured after 48 hrs by MTT assay
Assay type: functional, cell-based
Conditions: not given

SMILES | Activity
C=C(C)[C@H]1CC[C@@](C)(O)[C@@H](C2=C(O)C(CC=C(C)C)(CC=C(C)C)C(=O)C(C(=O)c3ccccc3)=C2O)C1 | Active
C=C(C)[C@@H]1CC[C@@](C)(O)[C@H]1CC1=C2O[C@H](C(C)(C)O)C[C@]2(C)C(=O)C(C(=O)C(C)CC)=C1O (stereo not given in full) | Active
CC(C)=CCC1(CC=C(C)C)C(=O)C(C(=O)c2ccccc2)=C(O)C([C@H]2C=C(C(C)C)CC[C@@]2(C)O)=C1O | Active
CC(C)=CCC1(CC=C(C)C)C(=O)C(C(=O)c2ccccc2)=C(O)C([C@@H]2C[C@H]3CC[C@]2(C)OC3(C)C)=C1O | Active
C=C(C)[C@@H]1CC[C@@](C)(O)[C@H]1CC1=C(O)C(C)(CC=C(C)C)C(=O)C(C(=O)C(C)CC)=C1O (stereo not given in full) | Active
CC(C)=CC[C@]1(C)C(=O)C(C(=O)C(C)C)=C(O)C2=C1O[C@]1(C)CC[C@]3(C(C)C)O[C@]13[C@H]2O | Active
CC(C)=CC[C@@]1(C)C(=O)C(C(=O)C(C)C)=C(O)C([C@H]2C[C@]3(C(C)(C)O)CC[C@@]2(C)O3)=C1O | Active
CC(C)=CC[C@]1(C)C(=O)C(C(=O)C(C)C)=C(O)C2=C1OC(C)(C)C1CC[C@@](C)(O)[C@H]1C2 (stereo not given in full) | Active
C=C(C)[C@H]1CC[C@@]2(C)OC3=C(CC12)C(O)=C(C(=O)C(C)CC)C(=O)C3(C)CC=C(C)C (stereo not given in full) | Active
C=C(C)[C@@H]1CC[C@](C)(O)[C@H]1CC1=C2O[C@H](C(C)(C)O)C[C@]2(CC=C(C)C)C(=O)C(C(=O)c2ccccc2)=C1O | Active
C=C(C)[C@@H]1CC[C@@](C)(O)[C@H]1CC1=C(O)C(CC=C(C)C)(CC=C(C)C)C(=O)C(C(=O)c2ccccc2)=C1O | Active
CCC(C)C(=O)C1=C(O)C2=C(OC(C)(C)[C@@H]3CC[C@@](C)(O)[C@@H]3C2)[C@](C)(CC=C(C)C)C1=O (stereo not given in full) | Active
CCC(C)C(=O)C1=C(O)C2=C(OC(C)(C)C3CC[C@@](C)(O)[C@H]3C2)[C@](C)(CC=C(C)C)C1=O (stereo not given in full) | Active
CC(C)=CC[C@@]12C[C@@H](C(C)(C)O)OC1=C(CC1[C@H]3CC[C@]1(C)OC3(C)C)C(O)=C(C(=O)C(C)C)C2=O (stereo not given in full) | Active
CC(C)=CCC1(CC=C(C)C)C(=O)C(C(=O)C(C)C)=C(O)C2=C1OC(C)(C)[C@@H]1CC[C@@](C)(O)[C@@H]1C2 | Active
C=C(C)[C@@H]1CC[C@@](C)(O)[C@H]1CC1=C2O[C@H](C(C)(C)O)C[C@]2(CC=C(C)C)C(=O)C(C(=O)c2ccccc2)=C1O | Active
CC(C)=CCC1(CC=C(C)C)C(=O)C(C(=O)C(C)C)=C(O)C([C@H]2C[C@]3(C(C)(C)O)CC[C@@]2(C)O3)=C1O | Active
C=C(C)[C@@H]1CC[C@@]2(C)OC3=C(CC12)C(O)=C(C(=O)C(C)C)C(=O)C3(C)CC=C(C)C (stereo not given in full) | Active
CC(C)=CCC1(C)C(=O)C(C(=O)C(C)C)=C(O)C([C@@H]2C[C@H]3CC[C@]2(C)OC3(C)C)=C1O (stereo not given in full) | Active
CC(C)=CC[C@@]1(C)C(=O)C(C(=O)C(C)C)=C(O)C2=C1O[C@]1(C)CC[C@@]3(C(C)C)O[C@@]13[C@H]2O | Active
CC(C)=CCC1(CC=C(C)C)C(=O)/C(=C(/O)c2ccccc2)C2=C(C1O)[C@H]1C=C(C(C)C)CC[C@@]1(C)O2 (stereo not given in full) | Active
C=C(C)[C@@H]1CC[C@@](C)(O)[C@H]1CC1=C2O[C@H](C(C)(C)O)C[C@]2(CC=C(C)C)C(=O)C(C(=O)C(C)C)=C1O | Active
COC[C@@H]1C2=C(O)C(CC=C(C)C)(CC=C(C)C)C(=O)C(C(=O)C(C)C)=C2OC1(C)C | Active
CC(C)=CCC1(CC=C(C)C)C(=O)C(C(=O)C(C)C)=C(O)C2=C1O[C@]1(C)CCC3(C(C)C)OC31[C@H]2O (stereo not given in full) | Active
C=C(C)[C@@H]1CC[C@@]2(C)OC3=C(CC12)C(O)=C(C(=O)c1ccccc1)C(=O)C3(CC=C(C)C)CC=C(C)C (stereo not given in full) | Active
CC(C)=CC[C@@]12C(=O)C(C(=O)C(C)C)=C(O)C(C)=C1O[C@]1(C)CCC(C(C)C)=C[C@H]21 | Active

System: HCT-116
Assay: Antiproliferative activity against human HCT-116 cells assessed as reduction in cell viability measured after 48 hrs by MTT assay
Assay type: functional, cell-based
Conditions: HCT-116, 48 h

pIC50 | SMILES
5.44 | C=C(C)[C@H]1CC[C@@](C)(O)[C@@H](C2=C(O)C(CC=C(C)C)(CC=C(C)C)C(=O)C(C(=O)c3ccccc3)=C2O)C1
5.25 | C=C(C)[C@@H]1CC[C@@](C)(O)[C@H]1CC1=C(O)C(C)(CC=C(C)C)C(=O)C(C(=O)C(C)CC)=C1O (stereo not given in full)

From ChEMBL document CHEMBL5338710, “Discovery of dearomatized isoprenylated acylphloroglucinols with colon tumor suppressive activities in mice via inhibiting NFκB-FAT1-PDCD4 signaling activation” (Eur J Med Chem, 2022)
